The values that follow come from US20100216823A1 (Pfizer Inc., priority 2007, published 2010).

What all share (type): biochemical
For one assay, the target named is T1, PDE7A (Homo sapiens, UniProt Q13946).
T1 construct: cell lysate containing full length PDE7A, PDE7B and PDE1C enzyme; made in house; host or cells: cell lysate
Description: PDE7A [3H]-cAMP scintillation proximity assay (SPA) enzyme inhibition. To be noted: for Ki: full length PDE7A in cell lysate, ~25 nM cAMP, Ki from IC50 by Cheng-Prussof equation; for 1C/7A selectivity: ratio PDE1C Ki / PDE7A Ki. On the procedure: (§1) The ability of the compounds of formula (I) to inhibit PDE7 and PDE1 may be measured using the following assay protocol.
(§2) PDE7A, PDE7B and PDE1C enzymes catalyse the hydrolysis of 3′,5′-cyclic adenosine monophosphate (cAMP) to the 5′ adenosine monophosphate, 5′AMP. In a multiwell plate, PDE enzyme, [^3H]-cAMP and the test compounds, are incubated at room temperature. The incubation is terminated by addition of commercially available yttrium silicate scintillation proximity assay (SPA) beads containing zinc sulphate. The yttrium silicate beads preferentially bind linear nucleotides, thus the product of the enzyme reaction, [^3H]-5′AMP binds to the bead to produce a light signal, which is detected by a scintillation counter. The amount of signal produced directly correlates with the amount of product formed, and thus the activity of the enzyme. The maximum signal is obtained where enzyme and substrate are incubated alone. The background signal is measured from wells either containing no enzyme, or from wells containing a supra-maximal concentration of a known PDE 7A/7B/1C inhibitor. Each purified batch of enzyme is quality controlled and its Km, Vmax and specific activity determined from kinetic studies before use in compound inhibition studies. The inhibition of the enzyme, by a test compound, is calculated relative to the maximum and background responses.
(§3) The compound of Example 75 of WO 02/074754, 5′-carboxypropoxy-8′-chloro-spiro[cyclohexane-1-4′-(3′,4′-dihydro)quinazolin]-2′(1′H)-one (referred to as compound A hereafter) was used as a standard for PDE7A and PDE7B. The compound of Example 32 of WO 02/074754, 4-(8′-chloro-2′-oxo-2′,3′-dihydro-1′H-spiro[cyclohexane-1,4′-quinazolin]-6′-yl)benzoic acid (referred to as compound B hereafter) was used as a standard for PDE1C.
(§4) The optimisation of this assay has been carried out using cell lysate containing full length PDE7A, PDE7B and PDE1C enzyme. The concentration of the enzyme in this cell lysate sample is unknown, so the specific activity of the cell lysate is used as a measure to ensure that the same activity per well is used despite any batch-to-batch variation of concentration/activity.
(§5) PDE7A/7B/1C stock enzyme was prepared and kept at −20° C. in appropriately sized aliquots to reduce the number of freeze/thaw cycles. […] PDE7A is diluted to 1/8000, PDE7B to 1/10000 and PDE1C to 1/200000.
(§6) The final assay [cAMP] of ˜25 nM is required, so ˜50 nM [^3H]-cAMP was prepared. 9 ml of substrate solution was prepared by mixing 10.8 μl of [^3H]-cAMP (available from Amersham) with 8975 μl of assay buffer.
(§7) 1 μl test compound was transferred into a suitable multi-well assay plate immediately prior to reagent assay addition, 14 μl enzyme solution was then added to the assay plate, followed by 15 μl substrate solution (ie: final assay volume 30 μl, with a final screening compound concentration of 1 μM for PDE7A and PDE7B and 10 μM for PDE1C). The plate was then sealed using a plate sealer and incubated at room temperature for 45 min on the plate shaker.
(§8) 30 μl Yttrium Silicate PDE4 SPA beads were then added, ensuring constant stirring of the beads to give even distribution in the assay plate. The plate was then sealed using a plate sealer and incubated at room temperature for 30 mins on the plate shaker. The beads were then allowed to settle for 30 mins, before spinning the plates for 1 min at 200 g.
(§9) The plates were then read on a suitable radioactive counter, for example NXT-TopCount™ (available from Perkin Elmer) using the relevant protocol (30 second read time per well).
(§10) The data was fitted to a sigmoid curve using a least squares algorithm.
(§11) The IC50 value was converted to a value using the Cheng-Prussof equation: […]
For orientation: SPA uses beads or plates that emit light when radiolabelled molecules are held near them.

The next assay concerns the target T2, PDE7B (Homo sapiens, UniProt Q9NP56).
T2 construct: cell lysate containing full length PDE7A, PDE7B and PDE1C enzyme; made in house; host or cells: cell lysate
Description: PDE7B [3H]-cAMP scintillation proximity assay (SPA) enzyme inhibition. To be noted: for Ki: full length PDE7B in cell lysate, ~25 nM cAMP, Ki from IC50 by Cheng-Prussof equation; for 1C/7B selectivity: ratio PDE1C Ki / PDE7B Ki. On the procedure:
as §1, §2, §3, §4, §5, §6, §7, §8, §9, §10, §11

The target of another assay is T3, PDE1C (Homo sapiens, UniProt Q14123).
T3 construct: cell lysate containing full length PDE7A, PDE7B and PDE1C enzyme; made in house; host or cells: cell lysate
Put plainly: PDE1C [3H]-cAMP scintillation proximity assay (SPA) enzyme inhibition. To be noted: full length PDE1C in cell lysate; 75 nM cAMP; Ki from IC50 by Cheng-Prussof equation. The protocol: as §1, §2, §3, §4, §5
The final assay [cAMP]=75 nM therefore the required solution [cAMP]=0.15 μM (1/2 dilution in assay plate)
as §7, §8, §9, §10, §11

T2 sequence (Q9NP56 whole entry): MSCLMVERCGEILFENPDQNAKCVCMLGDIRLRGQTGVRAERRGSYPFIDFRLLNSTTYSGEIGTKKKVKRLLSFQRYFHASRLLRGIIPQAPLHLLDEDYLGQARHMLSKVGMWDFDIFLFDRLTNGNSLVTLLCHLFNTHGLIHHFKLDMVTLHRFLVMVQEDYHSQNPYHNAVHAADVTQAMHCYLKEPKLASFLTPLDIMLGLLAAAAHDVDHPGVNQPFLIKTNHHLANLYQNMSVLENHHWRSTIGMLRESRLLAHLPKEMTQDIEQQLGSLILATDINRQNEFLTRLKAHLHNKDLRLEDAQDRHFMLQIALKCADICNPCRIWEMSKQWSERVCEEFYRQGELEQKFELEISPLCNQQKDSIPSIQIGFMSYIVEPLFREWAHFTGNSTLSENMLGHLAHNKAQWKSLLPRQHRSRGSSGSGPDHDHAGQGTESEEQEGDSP
T3 sequence (Q14123 whole entry): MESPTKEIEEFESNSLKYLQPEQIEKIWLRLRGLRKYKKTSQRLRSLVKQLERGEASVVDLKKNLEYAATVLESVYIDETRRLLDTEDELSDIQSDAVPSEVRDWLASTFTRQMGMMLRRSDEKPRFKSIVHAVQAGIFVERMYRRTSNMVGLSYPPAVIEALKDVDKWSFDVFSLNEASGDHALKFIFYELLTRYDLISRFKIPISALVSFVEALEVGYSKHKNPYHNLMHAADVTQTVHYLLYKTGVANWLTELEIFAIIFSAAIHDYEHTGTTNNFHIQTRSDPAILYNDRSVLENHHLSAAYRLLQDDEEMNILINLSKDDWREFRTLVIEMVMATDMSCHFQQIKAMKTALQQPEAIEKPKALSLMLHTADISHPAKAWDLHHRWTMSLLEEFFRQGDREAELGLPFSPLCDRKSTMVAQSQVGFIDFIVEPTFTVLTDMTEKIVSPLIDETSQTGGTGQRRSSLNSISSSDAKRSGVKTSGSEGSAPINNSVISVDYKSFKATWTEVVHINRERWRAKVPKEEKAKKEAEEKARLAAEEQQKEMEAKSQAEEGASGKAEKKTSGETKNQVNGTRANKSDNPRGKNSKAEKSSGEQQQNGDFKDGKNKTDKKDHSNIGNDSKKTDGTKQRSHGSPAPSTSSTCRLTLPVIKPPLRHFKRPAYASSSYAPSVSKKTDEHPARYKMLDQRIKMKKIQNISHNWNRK
T1 sequence (Q13946 whole entry): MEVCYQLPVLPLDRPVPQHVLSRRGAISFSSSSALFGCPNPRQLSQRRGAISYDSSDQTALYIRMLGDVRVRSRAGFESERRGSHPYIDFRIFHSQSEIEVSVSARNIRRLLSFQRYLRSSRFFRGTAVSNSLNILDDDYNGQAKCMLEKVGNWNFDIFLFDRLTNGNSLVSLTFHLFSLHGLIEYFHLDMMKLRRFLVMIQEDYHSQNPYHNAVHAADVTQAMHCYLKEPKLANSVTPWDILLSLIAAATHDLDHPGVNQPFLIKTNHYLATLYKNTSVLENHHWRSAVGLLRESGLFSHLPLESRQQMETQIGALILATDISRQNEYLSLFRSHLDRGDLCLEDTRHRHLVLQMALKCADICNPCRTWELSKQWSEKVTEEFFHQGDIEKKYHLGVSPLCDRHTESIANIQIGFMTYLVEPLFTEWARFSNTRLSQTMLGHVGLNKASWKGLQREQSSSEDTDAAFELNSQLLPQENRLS

A word on the Ki: it is a dissociation constant, usually derived from enzyme kinetics or from competition with a known ligand. Low readings indicate a stronger hold on the target, high ones a looser hold on the target. `O=C1Nc2c(Cl)cc(-c3ccc(C(=O)O)cc3)cc2C2(CCCCC2)N1` [Compound B, 4-(8′-chloro-2′-oxo-2′,3′-dihydro-1′H-spiro[cyclohexane-1,4′-quinazolin]-6′-yl)benzoic acid, reference compound]: at PDE7A, the inhibition constant (Ki) came out at 1.5 nM and the 1C/7A selectivity turned out to be 0.97. On PDE7B, the inhibition constant Ki was 39 nM and the 1C/7B selectivity worked out at 0.04. On PDE1C, this molecule came in with a Ki of 1.4 nM.
In the same order, the values of `O=C1Nc2c(Cl)ccc(OCc3ccc(C(=O)O)o3)c2C2(CCCCC2)N1` [Compound C, 5-{[(8′-chloro-2′-oxo-2′,3′-dihydro-1′H-spiro[cyclohexane-1,4′-quinazolin]-5′-yl)oxy]methyl}-2-furoic acid, reference compound] are 6.7 nM, 45, 33 nM, 9.2 and 305 nM.
In the same order, the values of `O=C1Nc2c(Cl)ccc(-c3ccc(F)c(C(=O)O)c3)c2C2(CCCCC2)N1` [Example 1, 5-[(8′-chloro-2′-oxo-2′,3′-dihydro-1′H-spiro[cyclohexane-1,4′-quinazolin]-5′-yl)]-2-fluorobenzoic acid] are 3.2 nM, greater than 1750, 32 nM, greater than 175 and greater than 5600 nM.
On to `O=C1Nc2c(Cl)ccc(-c3cccc(C(=O)O)c3)c2C2(CCCCC2)N1` [Example 2], for which the values for the Ki on PDE7A, on PDE7B and at PDE1C were 3.1 nM, 12 nM and greater than 5630 nM, respectively. The 1C/7A selectivity on PDE7A was greater than 1810. The 1C/7B selectivity at PDE7B is reported as greater than 477.
As to `O=C1Nc2c(Cl)ccc(-c3ccc(C(=O)O)c(F)c3)c2C2(CCCCC2)N1` [Example 3, 5-[(8′-chloro-2′-oxo-2′,3′-dihydro-1′H-spiro[cyclohexane-1,4′-quinazolin]-4′-yl)]-2-fluorobenzoic acid], at PDE7A, the Ki worked out at 11 nM and the 1C/7A selectivity was determined as 218. Further, at PDE7B, the inhibition constant (Ki) was found to be 101 nM and the 1C/7B selectivity worked out at 24. For the same molecule, the affinity at PDE1C corresponds to a Ki of 2430 nM.
Consider `O=C1Nc2c(Cl)ccc(-c3ccc(F)c(-c4nn[nH]n4)c3)c2C2(CCCCC2)N1` [Example 4], for which, at PDE7A, the Ki came out at 7.5 nM and the 1C/7A selectivity is 207. Moreover, at PDE7B, the inhibition constant Ki was 45 nM and the 1C/7B selectivity worked out at 35. Affinity on PDE1C was put at a Ki of 1560 nM.
In the same order, the values of `O=C(O)COc1cccc(-c2ccc(Cl)c3c2C2(CCCCC2)NC(=O)N3)c1` [Example 5, [3-(8′-chloro-2′-oxo-2′,3′-dihydro-1′H-spiro[cyclohexane-1,4′-quinazolin]-5′-yl)phenoxy]acetic acid] are 4.5 nM, greater than 1260, 51 nM, greater than 113 and greater than 5730 nM.
Taken in the same sequence, the figures for `O=C1Nc2c(Cl)ccc(Oc3c(F)cccc3C(=O)O)c2C2(CCCCC2)N1` [Example 6, 2-{(8′-chloro-2′-oxo-2′,3′-dihydro-1′H-spiro[cyclohexane-1,4′-quinazolin]-5′-yl)oxy}-3-fluorobenzoic acid] were 1.7 nM, 336, 3.4 nM, 172 and 584 nM.
Turning to `O=C1Nc2c(Cl)ccc(Oc3c(F)cccc3C(=O)O)c2C2(CCCC2)N1` [Example 7, 2-{(8′-chloro-2′-oxo-2′,3′-dihydro-1′H-spiro[cyclopentane-1,4′-quinazolin]-5′-oxy}-3-fluorobenzoic acid], on PDE7A, the Ki is 11 nM and the 1C/7A selectivity was 201. Also, on PDE7B, the Ki turned out to be 21 nM and the 1C/7B selectivity was 107. At PDE1C, this molecule had an inhibitory constant (Ki) of 2260 nM.
`O=C1Nc2c(Cl)ccc(Oc3c(Cl)cccc3C(=O)O)c2C2(CCCCC2)N1` [Example 8, 3-chloro-2-{(8′-chloro-2′-oxo-2′,3′-dihydro-1′H-spiro[cyclohexane-1,4′-quinazolin]-5′-yl)oxy}benzoic acid]: on PDE7A, the affinity, expressed as Ki, was 4.8 nM and the 1C/7A selectivity was 380. Further, at PDE7B, the Ki was 9.4 nM and the 1C/7B selectivity worked out at 192. This molecule also yielded an inhibition constant (Ki) at PDE1C of 1810 nM.
Taken in the same sequence, the figures for `O=C1Nc2c(F)ccc(Oc3c(Cl)cccc3C(=O)O)c2C2(CCCCC2)N1` [Example 9, 3-chloro-2-{(8′-fluoro-2′-oxo-2′,3′-dihydro-1′H-spiro[cyclohexane-1,4′-quinazolin]-5′-yl)oxy}benzoic acid] were 32 nM, greater than 116, 41 nM, greater than 92 and greater than 3750 nM.
As for `O=C1Nc2c(Cl)ccc(Oc3c(F)cccc3-c3nn[nH]n3)c2C2(CCCCC2)N1` [Example 10, 8′-chloro-5′-[2-fluoro-6-(2H-tetrazol-5-yl)phenoxy]-1′H-spiro[cyclohexane-1,4′-quinazolin]-2′(3′H)-one], on PDE7A, the Ki turned out to be 0.1 nM and the 1C/7A selectivity is on record as 743. In addition, at PDE7B, the Ki was 0.4 nM and the 1C/7B selectivity is listed as 186. This molecule registered a Ki at PDE1C of 73 nM.
In the same order, the values of `O=C1Nc2c(Cl)ccc(Oc3ccc(F)cc3-c3nn[nH]n3)c2C2(CCCCC2)N1` [Example 11, 8′-chloro-5′-[4-fluoro-2-(1H-tetrazol-5-yl)phenoxy]-1′H-spiro[cyclohexane-1,4′-quinazolin]-2′(3′H)-one] are less than 0.2 nM, greater than 307, 1 nM, 70 and 70 nM.
In the same order, the values of `O=C1Nc2c(F)ccc(Oc3c(F)cccc3-c3nn[nH]n3)c2C2(CCCCC2)N1` [Example 12] are 0.3 nM, 301, 0.7 nM, 123 and 89 nM.
Taken in the same sequence, the figures for `O=C1Nc2c(Cl)ccc(Oc3ccc(F)cc3-c3nnn[nH]3)c2C2(CCCC2)N1` [Example 13, 8′-chloro-5′-[4-fluoro-2-(1H-tetrazol-5-yl)phenoxy]-1′H-spiro[cyclopentane-1,4′-quinazolin]-2′(3′H)-one] were 1.7 nM, 523, 7.2 nM, 119 and 862 nM.
In the case of `O=C1Nc2c(Cl)ccc(Oc3c(F)cccc3-c3nn[nH]n3)c2C2(CCCC2)N1` [Example 14, 8′-chloro-5′-[6-fluoro-2-(1H-tetrazol-5-yl)phenoxy]-1′H-spiro[cyclopentane-1,4′-quinazolin]-2′(3′H)-one], at PDE7A, the affinity corresponds to a Ki of 2.4 nM and the 1C/7A selectivity was 301. For the same molecule, at PDE7B, the affinity corresponds to a Ki of 4.4 nM and the 1C/7B selectivity stood at 165. At PDE1C, this molecule showed a Ki of 723 nM.
`O=C(O)Cc1cccc(F)c1Oc1ccc(Cl)c2c1C1(CCCCC1)NC(=O)N2` [Example 22, {2-[(8′-chloro-2′-oxo-2′,3′-dihydro-1′H-spiro[cyclohexane-1,4′-quinazolin]-5′-yl)oxy]-3-fluorophenyl}acetic acid]: at PDE7A, the Ki was less than 0.05 nM and the 1C/7A selectivity is given as greater than 282.
